Laboratory results as given in patent US20260166121A1, “COMPOSITIONS AND METHODS FOR THE TREATMENT OF HEMORRHAGIC SHOCK” (Children's Hospital Medical Center, priority 2022, published 2026).

Columns and labels:
[1] = system: AMPKα1 wild-type (WT) and knockout (KO) mice; assay: Plasma levels of cytokines (multiplex array) after hemorrhagic shock; type: in vivo; settings: AMPKα1 WT or KO mice; 100 μg/kg intra-arterially; 3 h after resuscitation
Text: (§1) Murine model of hemorrhagic shock. The experiments conformed to the Guide for the Care and Use of Laboratory Animals published by the US National Institutes of Health (Eighth edition, 2011) and had the approval of the Institutional Animal Care and Use Committee. Homozygous AMPKα1 wild-type (WT) and AMPKα1 knockout (KO) mice were established on a C57/BL6 genetic background by the crossbreeding (>10 generations) of a breeding pair provided by Dr. Benoit Viollet of the University of Paris Descartes (Paris, France). For these experiments, female AMPKα1 WT and KO mice were generated by a breeding scheme utilizing heterozygous mutant mice. Female mice were used at random stages of the estrous cycle at the age of 3 to 5 months and assigned to the different experimental groups after routine genotyping by quantitative polymerase chain reaction. All mice were allowed free access to water and a maintenance diet in a 12-h light/dark cycle, with room temperature at 21±2° C. […] Mice were monitored for 3 hours after resuscitation for cardiovascular parameters. […]
Plasma levels of cytokines. Plasma levels of interleukin (IL)-1β, IL-6, IL-10, IL-17, keratinocyte-derived chemokine (KC), and tumor necrosis factor-α (TNFα) were evaluated by a commercially available multiplex array system (Linco-Research, St. Charles, MO) using the protocol recommended by the manufacturer.

[2] = system: STAT3 and Complex I subunit GRIM-19; assay: Western blot of pSTAT3(Ser727) and GRIM-19 in mitochondrial extracts of lung and heart; type: in vivo, mice
Text: (§2) Murine model of hemorrhagic shock. The experiments conformed to the Guide for the Care and Use of Laboratory Animals published by the US National Institutes of Health (Eighth edition, 2011) and had the approval of the Institutional Animal Care and Use Committee. Homozygous AMPKα1 wild-type (WT) and AMPKα1 knockout (KO) mice were established on a C57/BL6 genetic background by the crossbreeding (>10 generations) of a breeding pair provided by Dr. Benoit Viollet of the University of Paris Descartes (Paris, France). For these experiments, female AMPKα1 WT and KO mice were generated by a breeding scheme utilizing heterozygous mutant mice. Female mice were used at random stages of the estrous cycle at the age of 3 to 5 months and assigned to the different experimental groups after routine genotyping by quantitative polymerase chain reaction. All mice were allowed free access to water and a maintenance diet in a 12-h light/dark cycle, with room temperature at 21±2° C. Mice were anesthetized with pentobarbital (80 mg/kg) intraperitoneally and prepared for hemorrhagic shock, as previously described. Briefly, either the left or right femoral artery was cannulated using PE-10 tubing, and connected to a blood pressure transducer (PowerLab, AD Instruments, Colorado Springs, CO) for measurement of mean arterial blood pressure (MABP) and heart rate (HR). Blood was removed from the femoral artery over a 10-minute period until MABP reached 30±5 mmHg. The mice were kept in this MABP range for 90 min by additional blood removal or small volume transfusion. At the end of the shock period, mice were resuscitated by infusing their shed blood and twice that amount in Lactated Ringer's solution over a 10-min period. AMPKα1 WT and KO mice were also randomly assigned to two treatment groups: a vehicle group (distilled water, 500 μL) and a humanin-G (100 μg/kg) group. Drug treatment was given intra-arterially as single bolus right before resuscitation, and at 1 and 2 hours thereafter. Dose of humanin was chosen according to reported pharmacokinetics and pharmacodynamics of the drug in the mice. Mice were monitored for 3 hours after resuscitation for cardiovascular parameters. […] Mice were sacrificed at 3 hours after resuscitation and blood, heart and lungs were collected for biochemical assays.
Mitochondrial extracts. Mitochondria were isolated from hearts and lungs using a commercially available mitochondria isolation kit (TermoFisher Scientific, Waltham, MA) and following the protocol recommended by the manufacturer. The Bradford protein assay was used for quantitative determination of total proteins.
Western blot analysis. Cytosol and nuclear content of STAT3 and its two phosphorylated active forms pSTAT3(Tyr705) and pSTAT3(Ser727), and mitochondrial content of pSTAT3(Ser727) and the Complex I subunit GRIM-19 (gene associated with retinoid-IFN-induced mortality) were determined by immunoblotting analyses. Extracts were heated at 70° C. in equal volumes of ×4 Protein Sample Loading Buffer. Twenty μg of protein were loaded per lane on a 10% Bis-Tris gel. Proteins were separated electrophoretically and transferred to nitrocellulose membranes. Immunoblotting was performed using the IBind Flex Western System (Thermo Fischer Scientific, Waltham, MA) that applies sequential lateral flow to perform blocking and antibody binding. […] For all immunoblotting, the Odyssey LI-COR scanner and software (LI-COR Biotechnology, Lincoln, NE) were used for detection and quantitative analysis.

STAT3 = assay: Western blot of STAT3, pSTAT3(Ser727), pSTAT3(Tyr705) in cytosol and nuclear extracts of lung and heart; type: in vivo, mice
Text: as §2
Cytosol and nuclear extracts. Heart and lung tissues were homogenized using a Polytron homogenizer (Brinkman Instruments, West Orange, NY) in a buffer containing 0.32 M sucrose, 10 mM TrisHCl (pH 7.4), 1 mM EGTA, 2 mM EDTA, 5 mM NaN3, 10 mM β-mercaptoethanol, […], 0.15 mM pepstatin A, 0.2 mM phenylmethanesulfonyl fluoride, 50 mM NaF, 1 mM sodium orthovanadate, and 0.4 nM microcystin. Samples were centrifuged at 1,000 g for 10 min at […] and the supernatants collected as cytosol extracts. The pellets were then solubilized in Triton buffer (1% Triton X-100, 250 mM NaCl, 50 mM Tris HCl at pH 7.5, 3 mM EGTA, 3 mM EDTA, 0.1 mM phenylmethanesulfonyl fluoride, 0. 1 mM sodium orthovanadate, 10% glycerol, 2 mM p-nitrophenyl phosphate, 0.5% NP-40, and […]). The lysates were centrifuged at 15,000 g for 30 min at […] and the supernatant collected as nuclear extracts. The Bradford protein assay was used for quantitative determination of total proteins.
Western blot analysis. Cytosol and nuclear content of STAT3 and its two phosphorylated active forms pSTAT3(Tyr705) and pSTAT3(Ser727), and mitochondrial content of pSTAT3(Ser727) and the Complex I subunit GRIM-19 (gene associated with retinoid-IFN-induced mortality) were determined by immunoblotting analyses. Extracts were heated at 70° C. in equal volumes of ×4 Protein Sample Loading Buffer. Twenty μg of protein were loaded per lane on a 10% Bis-Tris gel. Proteins were separated electrophoretically and transferred to nitrocellulose membranes. […]

[3] = system: AMPKα1 wild-type (WT) and knockout (KO) mice; assay: Lung histopathologic analysis after hemorrhagic shock; type: in vivo; settings: 100 μg/kg intra-arterially, 3 h after resuscitation
Text: as §1, with “C. Mice were anesthetized with pentobarbital (80 mg/kg) intraperitoneally and prepared for hemorrhagic shock, as previously described.” for “C.”
Histopathologic analysis. […] Sections were stained with hematoxylin and eosin and evaluated by an independent observer blinded to the treatment groups. […]

[4] = system: AMPKα1 wild-type (WT) and knockout (KO) mice; assay: Plasma levels of humanin by competitive ELISA after hemorrhagic shock; type: in vivo; settings: 100 μg/kg intra-arterially, 3 h after resuscitation
Text: as §1, with “C. Mice were anesthetized with pentobarbital (80 mg/kg) intraperitoneally and prepared for hemorrhagic shock, as previously described.” for “C.”
Plasma levels of humanin. Endogenous plasma levels of humanin were measured by competitive ELISA ([…], MyBioSource, San Diego, CA) using the protocol recommended by the manufacturer.

[5] = system: AMPKα1 wild-type (WT) and knockout (KO) mice; assay: ATP assay in heart tissue after hemorrhagic shock; type: in vivo; settings: 100 μg/kg intra-arterially, 3 h after resuscitation
Text: as §1, with “C. Mice were anesthetized with pentobarbital (80 mg/kg) intraperitoneally and prepared for hemorrhagic shock, as previously described.” for “C.”
ATP assay. ATP levels were measured in heart tissue homogenates using a commercially available ATP assay kit (BioVision, Milpitas, CA) and following the protocol recommended by the manufacturer.

[6] = system: AMPKα1 wild-type (WT) and knockout (KO) mice; assay: Lung myeloperoxidase assay (neutrophil infiltration) after hemorrhagic shock; type: in vivo; settings: 100 μg/kg intra-arterially, 3 h after resuscitation
Text: as §1
Myeloperoxidase assay. Myeloperoxidase (MPO) activity was determined as an index of neutrophil accumulation. […] The rate of change in absorbance was measured by spectrophotometry at 650 nm. MPO activity was defined as the quantity of enzyme degrading […] of hydrogen peroxide/min at 37° C. and expressed in units per 100 mg weight of tissue.

[7] = system: AMPKα1 wild-type (WT) and knockout (KO) mice; assay: Transmission electron microscopy of heart tissue mitochondria after hemorrhagic shock; type: in vivo; settings: 100 μg/kg intra-arterially
Text: as §1
Transmission electron microscopy. […] The total number of mitochondria, and the presence of abnormal mitochondria with loose matrix, fragmented cristae and membranes were determined in four consecutive cells in four different sections for each animal by using NIH ImageJ analysis.

[8] = system: AMPKα1 wild-type (WT) and knockout (KO) mice; assay: Murine hemorrhagic shock model: mean arterial blood pressure and heart rate; type: in vivo
Text: Murine model of hemorrhagic shock. The experiments conformed to the Guide for the Care and Use of Laboratory Animals published by the US National Institutes of Health (Eighth edition, 2011) and had the approval of the Institutional Animal Care and Use Committee. Homozygous AMPKα1 wild-type (WT) and AMPKα1 knockout (KO) mice were established on a C57/BL6 genetic background by the crossbreeding (>10 generations) of a breeding pair provided by Dr. Benoit Viollet of the University of Paris Descartes (Paris, France). For these experiments, female AMPKα1 WT and KO mice were generated by a breeding scheme utilizing heterozygous mutant mice. Female mice were used at random stages of the estrous cycle at the age of 3 to 5 months and assigned to the different experimental groups after routine genotyping by quantitative polymerase chain reaction. All mice were allowed free access to water and a maintenance diet in a 12-h light/dark cycle, with room temperature at 21±2° C. Mice were anesthetized with pentobarbital (80 mg/kg) intraperitoneally and prepared for hemorrhagic shock, as previously described. Briefly, either the left or right femoral artery was cannulated using PE-10 tubing, and connected to a blood pressure transducer (PowerLab, AD Instruments, Colorado Springs, CO) for measurement of mean arterial blood pressure (MABP) and heart rate (HR). Blood was removed from the femoral artery over a 10-minute period until MABP reached 30±5 mmHg. The mice were kept in this MABP range for 90 min by additional blood removal or small volume transfusion. At the end of the shock period, mice were resuscitated by infusing their shed blood and twice that amount in Lactated Ringer's solution over a 10-min period. AMPKα1 WT and KO mice were also randomly assigned to two treatment groups: a vehicle group (distilled water, 500 μL) and a humanin-G (100 μg/kg) group. Drug treatment was given intra-arterially as single bolus right before resuscitation, and at 1 and 2 hours thereafter. […] Mice were monitored for 3 hours after resuscitation for cardiovascular parameters. […]

[9] = system: AMPKα1 and AMPKα2 subunits; settings: thoracic aortas; mice with sepsis; cited from earlier work
mice with sepsis = settings: cited from earlier work
[10] = heart mitochondria, WT or KO mice, compared to vehicle-treated mice
[11] = heart, WT mice, 100 μg/kg intra-arterially
[12] = lung, mice of both genotypes, 100 μg/kg intra-arterially

## [Gly14]-Humanin (MAPRGFSCLLLLTGEIDLPVKRRA) [humanin-G, synthetic humanin analogue, serine at position 14 replaced by glycine]
[1]
  plasma levels of cytokines (IL-1β, IL-6, IL-10, IL-17, KC, TNFα): did not affect
[2]; [10]
  mitochondrial expression of GRIM-19 in heart: did not affect
  mitochondrial expression of pSTAT3(Ser727) in heart: did not affect
[2]; isolated lung mitochondria, WT and KO mice, 100 μg/kg intra-arterially
  mitochondrial expression of pSTAT3(Ser727) in lung: slightly, but not significantly, increased
[2]; KO mice, 100 μg/kg intra-arterially
  GRIM-19 expression in lung mitochondria: did not affect
[2]; WT mice, 100 μg/kg intra-arterially
  GRIM-19 expression in lung mitochondria: restored levels of GRIM-19 similarly to basal levels
STAT3; [11]
  cytosolic or nuclear expression of pSTAT3(Ser727) in heart: did not affect
  cytosolic or nuclear expression of pSTAT3(Tyr705) in heart: did not affect
STAT3; heart, across experimental groups, WT or KO mice
  total levels of STAT3 in heart: no difference
STAT3; lung, across experimental groups, WT or KO mice
  total levels of STAT3 in lung: no difference
STAT3; [12]
  pSTAT3(Ser727) in lung cytosol and nucleus: upregulated only in the nucleus
  pSTAT3(Tyr705) in lung cytosol and nucleus: further upregulated
[3]
  lung architecture (histology): significantly improved
[4]; AMPKα1 WT and KO mice
  plasma humanin levels compared to vehicle-treated groups: not statistically different
[4]; AMPKα1 WT mice, but not KO mice
  plasma levels of humanin compared to control mice: comparable with levels of control mice
[5]
  cardiac ATP levels: increased
[6]
  lung MPO activity: significantly reduced
[7]; AMPKα1 KO mice, 3 h after resuscitation
  cardiac mitochondrial damage: reduced
[7]; AMPKα1 WT mice after hemorrhagic shock
  cardiac mitochondrial structural changes: No abnormal structural changes
[8]; AMPKα1 KO mice, 100 μg/kg intra-arterially at resuscitation, 1 h, 2 h
  MABP recovery to baseline: did not completely recover to baseline
[8]; AMPKα1 WT and KO female mice, 100 μg/kg intra-arterially at resuscitation and 1 h and 2 h thereafter, compared to vehicle-treated groups
  mean arterial blood pressure (MABP): significantly ameliorated
[8]; AMPKα1 WT or KO mice, 100 μg/kg intra-arterially, compared to vehicle-treated groups
  heart rate (HR): did not affect

## colivelin: synthetic analogue of humanin; SALLRSIPAPAGASRLLLLTGEIDLP (SEQ ID NO: 8)
[9]
  activation of AMPKα1 and AMPKα2 subunits: activates
Mice with sepsis; mice, Urban C, et al. 2022
  organ injury in experimental septic shock: protective effects
Mice with sepsis; thoracic aortas
  endothelial damage in mice with sepsis: ameliorating
